Measured values from ChEMBL document CHEMBL2429717 (J Med Chem, 2013).

Experiments:
[1] = Induction of interphase microtubule depolymerization in rat A10 cells after 18 to 24 hrs by DAPI staining-based indirect immunofluorescence assay; assay type: cell-based
[2] = Induction of interphase microtubule depolymerization in rat A10 cells; assay type: cell-based
[3] = test system: MDA-MB-435; experiment: Cytotoxicity against human MDA-MB-435 cells assessed as growth inhibition; assay type: functional, cell-based
[4] = test system: Jurkat; experiment: Cytotoxicity against human Jurkat cells assessed as growth inhibition; assay type: functional, cell-based
[5] = test system: MDA-MB-435; experiment: Cytotoxicity against human MDA-MB-435 cells assessed as growth inhibition after 72 hrs by SRB assay; assay type: functional, cell-based; conditions: MDA-MB-435, 72 h
[6] = target: Tubulin; experiment: Displacement of [3H]colchicine from tubulin (unknown origin); assay type: protein-complex assay, Homo sapiens

| SMILES | EC50 [1] [µM] | pEC50 [1] | EC50 [2] [µM] | pEC50 [2] | IC50 ([3]; read-out: IC50) [µM] | IC50 ([3]; read-out: pIC50 (converted)) [µM] | further results |
| --- | --- | --- | --- | --- | --- | --- | --- |
| COc1ccc(-c2c(Br)[nH]c(C(=O)OCc3ccccc3)c2Br)cc1OC | 100 | 4 | – | – | – | – | – |
| COc1ccc(-c2c(Br)[nH]c(C(=O)OC(C)C)c2Br)cc1OC | 3.6 | 5.44 | – | – | – | – | – |
| COc1ccc([C@H]2[C@H](c3cc(OC)c(OC)c(OC)c3)C(C)=NN2C(C)=O)cc1O | – | – | 4.5 | 5.35 | – | – | – |
| CCOC(=O)c1[nH]c(Br)c(-c2cc(OC)c(OC)cc2Br)c1Br | – | – | 14 | 4.85 | 2.6 | 2.63 | – |
| COc1cc2c(c(N)c1OC)C(=O)/C(=C/c1cc(C)c(O)c(C)c1)C2 | – | – | – | – | – | – | IC50 ([4]; read-out: IC50): 0.001 µM; IC50 ([4]; read-out: pIC50 (converted)): 0.001 µM |
| CCCCCCOC(=O)c1[nH]c(Br)c(-c2ccc(OC)c(OC)c2)c1Br | 14 | 4.85 | – | – | – | – | – |
| COc1ccc(-c2c(Br)[nH]c(C(=O)OC(C)(C)C)c2Br)cc1OC | 25 | 4.6 | – | – | – | – | – |
| CCOC(=O)c1c(-c2ccc(OC)c(OC)c2)c(-c2ccc(OC)c(OC)c2)cn1CCc1ccc(OC)c(OC)c1 | – | – | 500 | 3.3 | 100 | 100 | – |
| Cc1nc2c(c(N(C)c3ccccc3)n1)C[C@@H](C)C2 | – | – | 520 | 3.28 | 7.1 | 7.08 | – |
| COc1ccc(N(C)c2nc(N)nc3cc(C)[nH]c23)cc1 | 8.4 | 5.08 | – | – | – | – | IC50 ([5]; read-out: IC50): 0.298 µM; IC50 ([5]; read-out: pIC50 (converted)): 0.295 µM |
| CCOC(=O)c1cc(-c2ccc(OC)cc2)c(C(=O)c2ccc(OC)cc2)[nH]1 | – | – | 100 | 4 | 3 | 3.02 | – |
| CCOC(=O)c1[nH]c(C(=O)c2ccc(OC)cc2)c(-c2ccc(OC)cc2)c1Br | – | – | 500 | 3.3 | 100 | 100 | – |
| COc1ccc(-c2oc3c(OC)c(OC)c(OC)c(O)c3c(=O)c2OC)cc1O | – | – | – | – | – | – | Kd [6]: 0.13 µM |
| COc1ccc(N(C)c2ncnc3cc[nH]c23)cc1 | 1.4 | 5.85 | – | – | – | – | IC50 ([5]; read-out: IC50): 0.193 µM; IC50 ([5]; read-out: pIC50 (converted)): 0.195 µM |
| COc1ccc(C(=O)c2[nH]c(C(=O)c3ccc(OC)cc3)c(-c3ccc(OC)cc3)c2-c2ccc(OC)cc2)cc1 | – | – | 500 | 3.3 | 100 | 100 | – |
| CCOC(=O)c1[nH]cc(-c2ccc(OC)cc2)c1-c1ccc(OC)cc1 | – | – | 500 | 3.3 | – | – | – |
| COc1ccc(-c2oc3cc(O)c(OC)cc3c(=O)c2OC)cc1O | – | – | – | – | – | – | Kd [6]: 6 µM |

| SMILES | EC50 [1] [µM] | pEC50 [1] | EC50 [2] [µM] | pEC50 [2] | IC50 ([3]; read-out: IC50) [µM] | IC50 ([3]; read-out: pIC50 (converted)) [µM] | further results |
| --- | --- | --- | --- | --- | --- | --- | --- |
| COc1ccc(N(C)c2nc(C)nc3cc(C)[nH]c23)cc1 | 0.22 | 6.66 | – | – | – | – | IC50 ([5]; read-out: IC50): 0.03 µM; IC50 ([5]; read-out: pIC50 (converted)): 0.0302 µM |
| COc1ccc(-c2c(Br)[nH]c(C(=O)OCCCN(C)C)c2Br)cc1OC | 50 | 4.3 | – | – | – | – | – |
| CCOC(=O)c1[nH]c(Br)c(-c2cccc3ccccc23)c1Br | – | – | 7 | 5.15 | 3.2 | 3.24 | – |
| COc1cccc(N(C)c2nc(C)nc3c2C[C@@H](C)C3)c1 | – | – | 6.9 | 5.16 | 0.402 | 0.398 | – |
| COC(=O)c1[nH]c(Br)c(-c2ccc(OC)c(OC)c2)c1Br | 5 | 5.3 | – | – | – | – | – |
| COc1ccc(-c2c(Br)[nH]c(C(=O)OCCN(C)C)c2Br)cc1OC.Cl | 100 | 4 | – | – | – | – | – |
| COc1ccc2c(c1)CCCN2c1nc(C)nc2cc[nH]c12 | 0.23 | 6.64 | – | – | – | – | IC50 ([5]; read-out: IC50): 0.043 µM; IC50 ([5]; read-out: pIC50 (converted)): 0.0427 µM |
| COc1cccc(N(C)c2nc(C)nc3c2C[C@H](C)C3)c1 | – | – | 1.6 | 5.8 | 0.095 | 0.0955 | – |
| CCOC(=O)c1[nH]c(C(=O)c2ccc(OC)cc2)c(-c2ccc(OC)cc2)c1-c1ccc(OC)cc1 | – | – | 500 | 3.3 | 100 | 100 | – |
| COc1ccc(Nc2nc(C)nc3c2C[C@@H](C)C3)cc1 | – | – | 520 | 3.28 | 51 | 51.3 | – |
| COc1ccc(N(C)c2nc(C)nc3cc[nH]c23)cc1 | 1.2 | 5.92 | – | – | – | – | IC50 ([5]; read-out: IC50): 0.097 µM; IC50 ([5]; read-out: pIC50 (converted)): 0.0955 µM |
| O=C1/C(=C/c2cc(Cl)cc(Cl)c2)Cc2cc(O)c(O)cc21 | – | – | – | – | – | – | IC50 ([4]; read-out: IC50): > 50 µM; IC50 ([4]; read-out: pIC50 (converted)): 100 µM |
| COc1ccc(-c2c(Br)[nH]c(C(=O)OCCCN(C)C)c2Br)cc1OC.Cl | 100 | 4 | – | – | – | – | – |
| O=c1c(O)c(-c2ccc(O)cc2O)oc2cc(O)cc(O)c12 [MORIN] | – | – | – | – | – | – | Kd [6]: > 100 µM; pKd [6]: 3.7 |
| CCOC(=O)c1c[nH]c(C(=O)c2ccc(OC)cc2)c1-c1ccc(OC)cc1 | – | – | 500 | 3.3 | 100 | 100 | – |
| COc1ccc(OC(=O)c2[nH]c(Br)c(-c3ccc(OC)c(OC)c3)c2Br)cc1 | 100 | 4 | – | – | – | – | – |
| Cc1nc2c(c(N(C)c3ccccc3)n1)C[C@H](C)C2 | – | – | 43 | 4.37 | 1.67 | 1.66 | – |

Further lines, with some results ahead:

| EC50 [1] [µM] | pEC50 [1] | EC50 [2] [µM] | pEC50 [2] | SMILES | IC50 ([3]; read-out: IC50) [µM] | IC50 ([3]; read-out: pIC50 (converted)) [µM] | further results |
| --- | --- | --- | --- | --- | --- | --- | --- |
| – | – | 14 | 4.85 | CCOC(=O)c1[nH]c(Br)c(-c2ccc(OC)c(F)c2)c1Br | 0.539 | 0.537 | – |
| – | – | 19 | 4.73 | CCOC(=O)c1[nH]c(Br)c(-c2ccc(SC)cc2)c1Br | 0.626 | 0.631 | – |
| – | – | 30 | 4.53 | CCOC(=O)c1[nH]c(Br)c(-c2ccc3c(c2)OCO3)c1Br | 1.8 | 1.82 | – |
| – | – | 83 | 4.08 | CCOC(=O)c1[nH]c(Br)c(-c2ccc(Cl)cc2)c1Br | – | – | – |
| – | – | 2.4 | 5.62 | CCOC(=O)c1[nH]c(Br)c(-c2cccc(OC)c2)c1Br | 0.633 | 0.631 | – |
| 33 | 4.48 | – | – | CCCCOC(=O)c1[nH]c(Br)c(-c2ccc(OC)c(OC)c2)c1Br | – | – | – |
| – | – | 94 | 4.03 | CCOC(=O)c1[nH]c(Br)c(-c2ccc(Br)cc2)c1Br | – | – | – |
| – | – | 71 | 4.15 | CCOC(=O)c1[nH]c(Br)c(-c2cc(OC)c(OC)c(OC)c2)c1Br | – | – | – |
| – | – | 167 | 3.78 | CCOC(=O)c1[nH]c(Br)c(-c2ccccc2)c1Br | – | 10.2 | – |
| – | – | 18 | 4.75 | CCOC(=O)c1[nH]c(Br)c(-c2c[nH]c3ccccc23)c1Br | 2 | 2 | – |
| – | – | 33 | 4.48 | CCOC(=O)c1[nH]c(Br)c(-c2ccc3cc(OCC)ccc3c2)c1Br | 2 | 2 | – |
| 3.3 | 5.48 | – | – | CCCOC(=O)c1[nH]c(Br)c(-c2ccc(OC)c(OC)c2)c1Br | – | – | – |
| – | – | 75 | 4.12 | CCOC(=O)c1[nH]c(Br)c(-c2ccc(C)cc2)c1Br | – | 2.24 | – |
| – | – | 27 | 4.57 | CCOC(=O)c1[nH]c(Br)c(-c2ccc(OC(F)(F)F)cc2)c1Br | 1.7 | 1.7 | – |
| 50 | 4.3 | – | – | COc1ccc(-c2c(Br)[nH]c(C(=O)OCCN(C)C)c2Br)cc1OC | – | – | – |
| – | – | 7 | 5.15 | CCOC(=O)c1[nH]c(Br)c(-c2ccc(OC)cc2)c1Br | 0.843 | 0.851 | – |
| – | – | 21 | 4.68 | CCOC(=O)c1[nH]c(Br)c(-c2ccc3c(c2)OCCO3)c1Br | 4.4 | 4.37 | – |
| – | – | 9.9 | 5 | CCOC(=O)c1[nH]c(Br)c(-c2ccc(Cl)c(Cl)c2)c1Br | 0.806 | 0.813 | – |
